pKi: −log10 of the molar value.
Target: T1, P2X purinoceptor 7 (Homo sapiens, UniProt Q99572)
T1 sequence (Q99572 whole entry): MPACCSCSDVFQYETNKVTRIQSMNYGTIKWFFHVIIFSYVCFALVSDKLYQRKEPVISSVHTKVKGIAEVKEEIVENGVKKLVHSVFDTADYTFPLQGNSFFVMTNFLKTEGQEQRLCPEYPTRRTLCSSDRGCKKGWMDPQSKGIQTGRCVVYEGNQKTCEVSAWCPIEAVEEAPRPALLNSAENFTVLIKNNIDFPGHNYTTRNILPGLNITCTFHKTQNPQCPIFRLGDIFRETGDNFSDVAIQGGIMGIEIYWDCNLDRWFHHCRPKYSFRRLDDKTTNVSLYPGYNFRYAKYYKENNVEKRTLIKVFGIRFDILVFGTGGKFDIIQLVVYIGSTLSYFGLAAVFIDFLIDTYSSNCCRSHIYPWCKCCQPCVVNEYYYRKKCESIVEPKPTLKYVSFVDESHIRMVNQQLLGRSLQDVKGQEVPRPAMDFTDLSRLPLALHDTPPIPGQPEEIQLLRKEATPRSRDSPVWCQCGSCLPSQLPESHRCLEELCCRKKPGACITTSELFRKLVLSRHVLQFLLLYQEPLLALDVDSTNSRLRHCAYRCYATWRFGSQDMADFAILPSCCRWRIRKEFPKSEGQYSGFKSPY
Experiment: P2X7 Radioligand Binding
Procedure: human or rat P2X7-1321N1 cells were collected and frozen @−80° C. On the day of the experiment, cell membrane preparations were made according to standard published methods. […] The compound can be prepared as described in the literature. […] The assay was terminated by filtration (GF/B filters pre-soaked with 0.3% PEI) and washed with washing buffer (Tris-HCl 50 mM). The IC50 generated in the binding assay was corrected for tracer concentration and affinity of the tracer to derive at the affinity (K) of the test compounds. […] Data are analyzed and graphed on Graphpad Prism 5.

pKi	Structure (SMILES)
7.70	NNC(=O)c1ncccn1 [US10053463, 8]
8.00	NNC(=O)c1ccncn1 [US10053463, 9]

Structure (SMILES)	pKi
O=C1NCCn2c1nnc2-c1cnccn1 [US10053463, 1]	7.20

— BindingDB's records for patent US10053463 (Janssen Pharmaceutica NV, 2018)
